The values below come from patent US4657897A, “N^6 -substituted adenosines for treating pain” (Warner-Lambert Company, priority 1985, dated 1987).

The target of this assay is T1, adenosine A2 receptor (Rattus norvegicus, UniProt P30543).
T1 construct: 5 mg original tissue weight of rat weight of rat striatal membranes; tissue Pel-Freez (Rogers, Ark.) for the brains; host or cells: rat striatum (Sprague-Dawley; Long-Evans gave essentially identical results), membranes
The assay can be described thus: Adenosine Receptor Binding--A2 Receptor Affinity (RBA2), [3H]NECA binding, rat striatal membranes. The arrangement: species or system rat (mixed sex Sprague-Dawley; male Long-Evans). Particulars: 4 nM [3H]NECA, 50 nM N6-cyclopentyladenosine, 25° C., 60 min. The method, then:
Adenosine Receptor Binding--A2 Receptor Affinity (RBA2)
Brains from 200-500 g mixed sex Sprague-Dawley rats were purchased from Pel-Freez (Rogers, Ark.). […] Brains were thawed and then kept on ice while the striata were dissected out. Striata were disrupted in 10 vol of ice-cold 50 mM Tris.HCl (pH 7.7 at 25° C., pH 8.26 at 5° C.) (Tris) for 30 seconds in a Polytron PT-10 (Brinkmann) at setting 5. The suspension was centrifuged at 50,000 xg for ten minutes, the supernatant discarded, the pellet resuspended in 10 vol ice-cold Tris as above, recentrifuged, resuspended at 1 g/5 ml, and stored in plastic vials at -70° C. […] When needed, tissue was thawed at room temperature, disrupted in a Polytron, and kept on ice until used.
Test compounds were dissolved at 10 mM in dimethylsulfoxide on the same day as the experiment, and diluted in dimethylsulfoxide to 100× the final incubation concentration. […] [^3 H]NECA was diluted to 40 nM in Tris. […] After all additions, the rack of tubes was vortexed, and the tubes were then incubated for 60 min at 25° C. in a shaking water bath. The rack of tubes was vortexed an additional time halfway through the incubation.
Incubations were terminated by filtration through 2.4 cm GF/B filters under reduced pressure. Each tube was filtered as follows: the contents of the tube were poured onto the filter, 4 ml of ice-cold Tris were added to the tube and the contents poured onto the filter, and the filter was washed twice with 4 ml of ice-cold Tris. The filtration was complete in about twelve seconds. Filters were put in scintillation vials, 8 ml of Formula 947 scintillation fluid added, and the vials left overnight, shaken, and counted in a liquid scintillation counter at 40% efficiency.
The IC50 was calculated by weighted nonlinear least squares curve-fitting to the mass-action equation. [formula] where Y is cpm bound
T is cpm total binding without drug
S is cpm specific binding without drug
D is the concentration of drug
K is the IC50 of the drug
Weighting factors were calculated under the assumption that the standard deviation was proportional to the predicted value of Y. Nonspecific binding was treated as a very large (infinite) concentration of drug in the computer analysis.

T1 sequence (P30543 whole entry): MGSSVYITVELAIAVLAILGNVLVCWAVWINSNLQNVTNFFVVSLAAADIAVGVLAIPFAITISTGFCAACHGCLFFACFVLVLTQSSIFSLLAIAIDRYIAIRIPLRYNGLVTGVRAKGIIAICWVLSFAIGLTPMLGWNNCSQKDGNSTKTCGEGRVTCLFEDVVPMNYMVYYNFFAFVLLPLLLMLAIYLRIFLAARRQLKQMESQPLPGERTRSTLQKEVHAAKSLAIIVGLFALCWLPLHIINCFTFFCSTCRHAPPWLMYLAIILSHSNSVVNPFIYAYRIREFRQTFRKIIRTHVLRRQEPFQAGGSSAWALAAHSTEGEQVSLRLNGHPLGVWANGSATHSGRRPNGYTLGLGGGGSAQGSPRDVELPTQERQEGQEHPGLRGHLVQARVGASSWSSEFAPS

The term IC50 denotes the concentration at which inhibition is half-maximal. High values mean lower potency, low ones higher potency. `OC[C@H]1O[C@@H](n2cnc3c(NCCC(c4ccccc4)c4ccccc4)ncnc32)[C@H](O)[C@@H]1O` [Example 2, N^6-(3,3-Diphenylpropyl)adenosine] returned an IC50 of 0.39 µM.
